Assay results published in patent US20240110004A1 (Northwestern University, priority 2022, published 2024).
Where no end group is shown, it is not given here.

What was measured:
C57BL/6J mice = assay: Toxicity in WT C57BL/6J mice (CBC, serum chemistry, H&E pathology); type: in vivo, mouse; conditions: 3 mg/kg with respect to peptide, osmotic subcutaneous pump, 8 weeks, vs saline
Description: FIG. 21: Optical micrographs for toxicity pathology analysis. H&E stained tissue; scale bar: 200 μm.
FIG. 22: Quantification of in vivo results from toxicity pathology analysis as depicted in FIG. 21. Left: pathology severity scoring of H&E stained tissue; Middle: red blood cell count; Right: white blood cell count.
FIG. 23A-23D: Quantification of in vivo results from toxicity pathology analysis as depicted in FIG. 21. FIG. 23A: represents hemoglobin count; FIG. 23B: total protein count; FIG. 23C: ALT (alanine transaminase) count; FIG. 23D: total bilirubin count.
Methods: To assess the toxicity of P1 at the administrable dose in healthy animals, as compared to HV3-TAT at its operating dose, and saline for the negative control, male C57BL/6J mice were assigned to 3 groups (n=3-4 per group) and administered via osmotic subcutaneous pump (Alzet) either HV3-TAT at 3 mg/kg, P1 at 3 mg/kg, all with respect to peptide concentration, or saline as a negative control for 8 weeks. Animals were checked weekly after drug administration for mortality. At sacrifice, blood was collected from each animal via cardiac puncture using a 25-gauge needle while under isoflurane, and then animals were sacrificed and major organs (brain, lung, heart, liver, spleen, spinal cord, and kidneys) collected, weighed, and stored in 10% buffered formalin followed by paraffin embedment.

pepsin = pepsin (Sus scrofa, UniProt P00791)
Description: (§1) Stability of PLPs Methods I: For enzyme-induced cleavage experiments, the molar concentration of enzymes was set to 0.1 μM. The concentration of side-chain peptides (having sequence identity of SEQ ID: 1) varied in the range of 50-200 μM. For each enzyme, temperature was set for optimal enzyme activity. In a typical experiment, P1 or HV3-TAT was dissolved in DPBS (pH 7.4) or hydrochloric acid solution (pH 2), to obtain a stock polymer/peptide solution with a peptide concentration of 200 μM. Next, 5 μL of enzyme stock solution (10 μM) was added into 500 μL of the polymer/peptide solution which was subsequently stirred in a preheated oil bath at 37° C. In this case, the molar ratio of peptide substrate to enzymes was 2000:1. During the cleavage, aliquots were taken for HPLC analysis at predetermined time points. Each degradation experiment was repeated three times. Enzyme pretreated P1 was also run on SDS-PAGE and visualized with Coomassie Blue staining.

R6/2 mice [1] = assay: Immunohistochemistry of DARPP-32 in striatum; type: in vivo, mouse; conditions: over saline control
Description: FIG. 33: Quantification of immunohistochemistry of DARPP32 in striatum of WT and R6/2 mice after treatment with PLP or HV3-TAT (immunohistochemistry stain not shown). p-value for: WT veh as compared to R62 veh: 0.0010; WT+P1 as compared to R62 veh: 0.0019; R62 veh as compared to R62+HV3-TAT: 0.0496; R62 veh as compared to R62+P1: 0.0104; R62+HV3-TAT as compared to R62+P1: 0.9593.
In vivo Efficacy Methods—Immunohistochemistry: Mice were anaesthetized with isoflurane and transcardially perfused with PBS. After post-fixed with 4% paraformaldehyde, brains were sliced and frozen. Brain sections (20 μm, coronal) were used for immunohistochemical localization of DARPP-32 (1:14000, Abcam) using the IHC Select HRP/DAB kit (Millipore). Imaging of slices was conducted on an all-in-one fluorescence microscope (Keyence). The same image exposure times and threshold settings were used for sections from all treatment groups. Quantitation of DARPP-32 immunostaining was conducted using NIH image J software.

[2] = human, microsomes
Description: At each time point, 10 μL of supernatant was diluted with 90 μL of water with 0.1% trifluoroacetic acid.

R6/2 mice [3] = assay: mtHtt impact: mitochondrial VCP level and mtHtt aggregation in striatum; type: in vivo, mouse; conditions: for VCP level on mitochondria of striatum: ATPB loading control; for mtHtt aggregation in striatum: compared to saline treated
Description: FIG. 34A-34B: Quantification of mitochondrial studies. FIG. 34A depicts quantification of immunoblot results for VCP levels on mitochondrial fractions from striatal extracts of WT and R6/2 mice after treatment (immunoblot not shown). ATPB refers to ATP-ase β subunit. p-value for: WT veh as compared to R62 veh: <0.0001; WT+P1 as compared to R62 veh: <0.0001; R62 veh as compared to R62+HV3-TAT: 0.0001; R62 veh as compared to R62+P1: 0.0184; R62+P1 as compared to R62+HV3-TAT: 0.2663. FIG. 34B depicts quantification of mtHtt aggregation after EM48 staining (stains not shown). p-value for: R62 veh as compared to R62+HV3-TAT: 0.0491; R62 veh as compared to R62+P1: 0.0189; R62+P1 as compared to R62+HV3-TAT: 0.8765.
In vivo Efficacy Methods—mtHtt Impact: As the pathophysiological hallmark of HD, the formation of mtHtt aggregates can be observed in striatum of HD mouse models, like R6/2 mice. […] HV3 peptide blocks mtHtt-VCP binding, and inhibits VCP mitochondrial accumulation, which reduce behavioral and neuropathological phenotypes of HD. Mitochondrial level of VCP and mtHtt aggregation were examined to test whether PLP recapitulates the mechanism of HV3 peptide. Mitochondrial fractions of striatum were isolated from mice in each treatment group. Protein levels of VCP on mitochondria were analyzed by western blotting, using ATPB as a loading control for mitochondria. mtHtt aggregation was visualized by immunohistochemical staining by anti-mtHtt antibody.

Sequence of pepsin (P00791 60-385): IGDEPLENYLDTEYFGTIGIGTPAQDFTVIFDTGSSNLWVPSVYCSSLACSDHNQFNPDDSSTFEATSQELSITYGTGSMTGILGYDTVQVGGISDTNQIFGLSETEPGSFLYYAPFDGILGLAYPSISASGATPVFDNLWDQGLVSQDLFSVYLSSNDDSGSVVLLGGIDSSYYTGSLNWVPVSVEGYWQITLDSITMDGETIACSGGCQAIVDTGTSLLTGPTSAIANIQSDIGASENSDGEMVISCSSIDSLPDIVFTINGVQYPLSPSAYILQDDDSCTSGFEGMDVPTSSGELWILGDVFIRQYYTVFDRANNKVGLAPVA
Description for C3a: Immunocompatibility Methods: The interaction of a compound with blood will affect immune response, biodistribution, and clearance. The complement system is a key player in the innate immune response, and thus assaying the interaction between the complement system and PLPs serves as a litmus test to assess inherent inflammatory activity. Complement component C3a is implicated in all three of the complement activation pathways (classic, alternative, and lectin), thus a significant increase in C3a would warrant further investigation into specific activation of the innate and adaptive immune systems. […] In this assay, mouse weight was estimated as 35 g with an average blood volume of 2 mL for dosing preparation. Tested compounds were incubated at a ratio of 1:250 and 1:500 of compound to human serum for 4 hours prior to dilution and start of the assay. Using the C3a ELISA assay, and following manufacturer's protocol, samples were diluted with sample diluent and C3a control reconstituted with water. […] Serum samples and controls were incubated in C3a antibody coated wells for 2 hours with gentle shaking, before they were gently washed 3× with washing buffer, and primary antibody biotin solution administered to wells. […] After a final wash, developing substrate was added for 30 minutes before imaging on plate reader at 450 nM.
Description for enzymes: as §1
Description for red blood cells: Hemocompatibility Methods: Before in vivo studies could be conducted, hemocompatibility of the compounds was also assessed via activated clotting time (ACT) and hemolytic activity. Peptide-in-blood and polymer-in-blood dilutions were performed at volume ratios of 1:10000, 1:5000, 1:1000, 1:500, 1:250, and in some cases 1:100.
Regarding the hemolytic activity assay, the hemolytic assessments required 25 ml of whole human blood mixed with Na Citrate anticoagulant to be obtained. To prepare solution of erythrocytes, whole blood was centrifuged at 500 g for 5 minutes, and plasma aspirated. The same volume of plasma removed was replaced with 150 mM NaCl buffer (in Millipore water). Tube was inverted to mix, centrifuged at 500 g for 5 min, and supernatant removed, and this step repeated 2×. Finally, red blood cells (RBC) were resuspended in PBS. 10 μL of compound was added to 190 μL of diluted red blood cell erythrocyte solution in a 96 well plate (n=4). 20% Triton X acted as the positive control, and PBS acted as the negative control/vehicle. Plates were incubated at 37° C. for 1 hour. Plates were centrifuged for 5 min at 500×g to pellet intact erythrocytes. Using a multichannel pipet, 100 μl of supernatant was transferred from each well into a clear, flat-bottomed 96-well plate. Absorbance of supernatants was measured with a plate reader at 405 nM

Row | Substance | molecular weight on SDS-PAGE after enzyme treatment (enzymes) | complete blood count (CBC) panel and serum chemical analysis (C57BL/6J mice) | pathology of H&E stained tissues (C57BL/6J mice) | cleavage by pepsin (pepsin) | DARPP-32 levels in striatum (immunohistochemistry) (R6/2 mice [1]) | liver microsomal stability [2] | VCP level on mitochondria of striatum (R6/2 mice [3]) | mtHtt aggregation in striatum (R6/2 mice [3]) | C3a complement activation compared to the vehicle (C3a) | hemolytic activity (red blood cells) | percent cleavage by pepsin (pepsin; isolated enzyme pepsin, 50 min, 200 μM)
1 | P1: PLP homopolymer having peptide side chains of SEQ ID: 1 (HVLVMSATRR), made by ROMP of norbornene peptide monomer M1 (also: side chains of polynorbornene homopolymer (PLP, ROMP of norbornene peptide monomer)) | maintained molecular weight | no significant difference between groups | No pathological differences | no cleavage observed | significantly increased DARPP-32 levels | superior stability | inhibited mitochondrial VCP accumulation to a lesser extent | inhibited mtHtt aggregation | did not show a statistically significant difference | non-significant | 
2 | peptide sequence HVLVMCAT (HV3) coupled to the cell penetrating, HIV-derived TAT peptide [HV3-TAT, reference compound] |  | no significant difference between groups | No pathological differences |  |  |  | blocked aberrant VCP mitochondrial translocation | inhibited mtHtt aggregation |  |  | 100%
